CC50 and EC50 data for 17 compounds are collected here from patent US11142527B2, “Dihydropyrimidine compounds and uses thereof in medicine” (SUNSHINE LAKE PHARMA CO., LTD., priority 2017, dated 2021).

Series [1] is described as follows: Cytotoxicity test with CellTiter Glo. It counts as cell-based. Particulars: human, HepG2.2.15 cells, highest concentration 150 μM, read-out: CC50 values of the compounds of the invention. On the procedure:
Test 2: Cytotoxicity and Selectivity Index
Methods of Testing Cytotoxicity and Selectivity Index
The serial diluted compound was added to a 384 wells plate at 50 μL HepG2.2.15 cell per well (3000 cells per well), the highest final concentration in the experiment is 150 μM (200 fold dilution). The plate was cultured at 37° C. in an incubator with CO2 for 4 days, and cytotoxicity of the compound was detected using CellTiter Glo agent.
The cytotoxicity of the compound was calculated using the following formulate, cytotoxicity (%)=100−(detection value/mean of DMSO control wells values×100) CC50 values were calculated by a four parametric nonlinear regression model using Graphpad Prism 5 software to manage concentration−cytotoxicity (%).

A further series relates to HBV. The series is described as follows: Test of anti HBV activity in vitro (viral DNA by qPCR). It counts as cell-based. The following applies: Hepatitis B virus; HepG2.2.15 cells, viral DNA in cell culture supernatant by qPCR; read-out: EC50 values of the compound of the invention on viral replication. An outline of the steps:
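HepG2.2.15 cells (integrated HBV genome) were grown to confluence, then treated with compound in 4-fold dilutions from 4 μM final (0.5% DMSO). Secreted viral DNA in supernatant was quantified by SYBR qPCR against an HBV plasmid standard curve; EC50 from four-parameter nonlinear regression of concentration versus copy number.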

Regarding `COC(=O)C1=C(CN2CCN3C(=O)N(c4ccc(-c5ccc(C(=O)O)c(F)c5)c(F)c4)C[C@@H]3C2)NC(c2nccs2)=N[C@H]1c1ccc(F)cc1Cl` [Example 34, 4′-((S)-7-(((R)-6-(2-chloro-4-fluorophenyl)-5-(methoxycarbonyl)-2-(thiazol-2-yl)-3,6-dihydropyrimidin-4-yl)methyl)-3-oxohexahydroimidazo[1,5-a]pyrazin-2(3H)-yl)-2′,3-difluoro-[1,1′-diphenyl]-4-carboxylic acid], the CC50 at 4 days in series [1] was greater than 150000 nM. The EC50 in the series with HBV is 7 nM.
`COC(=O)C1=C(CN2CCN3C(=O)N(c4nc(-c5cc(F)cc(C(=O)O)c5)cs4)C[C@@H]3C2)NC(c2nccs2)=N[C@H]1c1ccc(F)cc1Cl` [Example 138, 3-(2-((S)-7-(((R)-6-(2-chloro-4-fluorophenyl)-5-(methoxycarbonyl)-2-(thiazol-2-yl)-3,6-dihydropyrimidin-4-yl)methyl)-3-oxohexahydroimidazo[1,5-a]pyrazin-2(3H)-yl)thiazol-4-yl)-5-fluorobenzoic acid]: in series [1], the CC50 at 4 days was greater than 150000 nM. Also, in the series on HBV, the EC50 amounted to 34 nM.
In the case of `COC(=O)C1=C(CN2CCN3C(=O)N(CC#Cc4ccc(C#N)cc4)C[C@@H]3C2)NC(c2nccs2)=N[C@H]1c1ccc(F)cc1Cl` [Example 44, (R)-methyl 4-(2-chloro-4-fluorophenyl)-6-(((S)-2-(3-(4-cyanophenyl)prop-2-yn-1-yl)-3-oxohexahydroimidazo[1,5-a]pyrazin-7(1H)-yl)methyl)-2-(thiazol-2-yl)-1,4-dihydropyrimidine-5-carboxylate], in series [1], the cytotoxic concentration (CC50) at 4 days was greater than 150000 nM. Besides, the EC50 in the series on HBV was determined as 3.6 nM.
In the case of `COCC(C)(C)NC(=O)c1ccc(Oc2ccc(N3C[C@@H]4CN(CC5=C(C(=O)OC)[C@H](c6ccc(F)cc6Cl)N=C(c6nccs6)N5)CCN4C3=O)cc2)cc1` [Example 70, (R)-methyl 4-(2-chloro-4-fluorophenyl)-6-(((S)-2-(4-(4-((1-methoxy-2-methylprop-2-yl)carbamoyl)phenoxy)phenyl)-3-oxohexahydroimidazo[1,5-a]pyrazin-7(1H)-yl)methyl)-2-(thiazol-2-yl)-1,4-dihydropyrimidine-5-carboxylate], the CC50 at 4 days in series [1] was greater than 150000 nM. Also, the EC50 with HBV came out at 15.9 nM.
As for `COC(=O)C1=C(CN2CCN3C(=O)N(c4cc(F)cc(N5CCC(C(=O)O)CC5)c4)C[C@@H]3C2)NC(c2nccs2)=N[C@H]1c1ccc(F)cc1Cl` [Example 32, 1-(3-((S)-7-(((R)-6-(2-chloro-4-fluorophenyl)-5-(methoxycarbonyl)-2-(thiazol-2-yl)-3,6-dihydropyrimidin-4-yl)methyl)-3-oxohexahydroimidazo[1,5-a]pyrazin-2(3H)-yl)-5-fluorophenyl)piperidine-4-carboxylic acid], the CC50 at 4 days in series [1] was greater than 150000 nM. Moreover, the EC50 with HBV was found to be 6 nM.
Consider `COC(=O)C1=C(CN2CCN3C(=O)N(c4nc(-c5cccc(C(=O)O)c5)cs4)C[C@@H]3C2)NC(c2nccs2)=N[C@H]1c1ccc(F)cc1Cl` [Example 139, 3-(2-((S)-7-(((R)-6-(2-chloro-4-fluorophenyl)-5-(methoxycarbonyl)-2-(thiazol-2-yl)-3,6-dihydropyrimidin-4-yl)methyl)-3-oxohexahydroimidazo[1,5-a]pyrazin-2(3H)-yl)thiazol-4-yl)benzoic acid], for which, in series [1], the CC50 at 4 days is greater than 150000 nM. The EC50 with HBV was found to be 10.7 nM.
On to `COC(=O)C1=C(CN2CCN3C(=O)N(c4ccc(-c5ccc(C(=O)O)cc5F)c(F)c4)C[C@@H]3C2)NC(c2nccs2)=N[C@H]1c1ccc(F)cc1Cl` [Example 33, 4′-((S)-7-(((R)-6-(2-chloro-4-fluorophenyl)-5-(methoxycarbonyl)-2-(thiazol-2-yl)-3,6-dihydropyrimidin-4-yl)methyl)-3-oxohexahydroimidazo[1,5-a]pyrazin-2(3H)-yl)-2,2′-difluoro-[1,1′-diphenyl]-4-carboxylic acid], for which the CC50 at 4 days in series [1] was greater than 150000 nM. The EC50 in the series with HBV worked out at 7 nM.
For `COC(=O)C1=C(CN2CCN3C(=O)N(c4cc(F)cc(-c5ccc(C(=O)O)cc5F)c4)C[C@@H]3C2)NC(c2nccs2)=N[C@H]1c1ccc(F)cc1Cl` [Example 118, 3′-((S)-7-(((R)-6-(2-chloro-4-fluorophenyl)-5-(methoxycarbonyl)-2-(thiazol-2-yl)-3,6-dihydropyrimidin-4-yl)methyl)-3-oxohexahydroimidazo[1,5-a]pyrazin-2(3H)-yl)-2,5′-difluoro-[1,1′-biphenyl]-4-carboxylic acid], in that order: greater than 150000 nM and 8.9 nM.
For `COC(=O)C1=C(CN2CCN3C(=O)N(c4ccc(-c5cc(C(=O)O)ccc5F)cc4)C[C@@H]3C2)NC(c2nccs2)=N[C@H]1c1ccc(F)cc1Cl` [Example 116], the CC50 at 4 days in series [1] was greater than 150000 nM. Besides, the EC50 with HBV turned out to be 19.9 nM.
Consider `COC(=O)C1=C(CN2CCN3C(=O)N(CC#Cc4c(C)cc(C#N)cc4C)C[C@@H]3C2)NC(c2nccs2)=N[C@H]1c1ccc(F)cc1Cl` [Example 48, (R)-methyl 4-(2-chloro-4-fluorophenyl)-6-(((S)-2-(3-(4-cyano-2,6-dimethylphenyl)-2-propynyl)-3-oxohexahydroimidazo[1,5-a]pyrazin-7(1H)-yl)methyl)-2-me (thiazol-2-yl)-1,4-dihydropyrimidine-5-carboxylate], for which the CC50 at 4 days in series [1] was greater than 150000 nM. The EC50 in the series on HBV turned out to be 6.3 nM.
Take `COC(=O)C1=C(CN2CCN3C(=O)N(c4nc(-c5ccc(C(=O)O)cc5F)cs4)C[C@@H]3C2)NC(c2nccs2)=N[C@H]1c1ccc(F)cc1Cl` [Example 136, 4-(2-((S)-7-(((R)-6-(2-chloro-4-fluorophenyl)-5-(methoxycarbonyl)-2-(thiazol-2-yl)-3,6-dihydropyrimidin-4-yl)methyl)-3-oxohexahydroimidazo[1,5-a]pyrazin-2(3H)-yl)thiazol-4-yl)-3-fluorobenzoic acid]: in series [1], the CC50 at 4 days was greater than 150000 nM. Also, in the series with HBV, the EC50 stood at 20.1 nM.
Regarding `COC(=O)C1=C(CN2CCN3C(=O)N(c4ccc(Oc5ccc(C(=O)NC(C)CO)cc5)cc4)C[C@@H]3C2)NC(c2nccs2)=N[C@H]1c1ccc(F)cc1Cl` (stereo partly drawn) [Example 72, (4R)-methyl 4-(2-chloro-4-fluorophenyl)-6-(((8aS)-2-(4-(4-((1-hydroxyprop-2-yl)carbamoyl)phenoxy)phenyl)-3-oxohexahydroimidazo[1,5-a]pyrazin-7(1H)-yl)methyl)-2-(thiazol-2-yl)-1,4-dihydropyrimidine-5-carboxylate], the CC50 at 4 days in series [1] was greater than 150000 nM. The EC50 in the series on HBV was determined as 21.2 nM.
For `COC(=O)C1=C(CN2CCN3C(=O)N(c4ccc(Oc5ccc(CO)cc5)cc4)C[C@@H]3C2)NC(c2nccs2)=N[C@H]1c1ccc(F)cc1Cl` [Example 99, (R)-methyl 4-(2-chloro-4-fluorophenyl)-6-(((S)-2-(4-(4-(hydroxymethyl)phenoxy)phenyl)-3-oxohexahydroimidazo[1,5-a]pyrazin-7(1H)-yl)methyl)-2-(thiazol-2-yl)-1,4-dihydropyrimidine-5-carboxylate], in that order: greater than 150000 nM and 12.6 nM.
Turning to `COC(=O)C1=C(CN2CCN3C(=O)N(CC#Cc4ccc(C(=O)N(C)C)cc4)C[C@@H]3C2)NC(c2nccs2)=N[C@H]1c1ccc(F)cc1Cl` [Example 42, (R)-methyl 4-(2-chloro-4-fluorophenyl)-6-(((S)-2-(3-(4-(dimethylcarbamoyl)phenyl)prop-2-yn-1-yl)-3-oxohexahydroimidazo[1,5-a]pyrazin-7(1H)-yl)methyl)-2-(thiazol-2-yl)-1,4-dihydropyrimidine-5-carboxylate], the CC50 at 4 days in series [1] is greater than 150000 nM. For the same compound, the 50% effective concentration (EC50) in the series on HBV is 8 nM.
Turning to `COC(=O)C1=C(CN2CCN3C(=O)N(c4ccc(Oc5ccc(C(=O)N6CCCC6(F)F)cc5)cc4)C[C@@H]3C2)NC(c2nccs2)=N[C@H]1c1ccc(F)cc1Cl` [Example 57, (R)-methyl 4-(2-chloro-4-fluorophenyl)-6-(((S)-2-(4-(4-(2,2-difluoropyrrolidine-1-carbonyl)phenoxy)phenyl)-3-oxohexahydroimidazo[1,5-a]pyrazin-7(1H)-yl)methyl)-2-(thiazol-2-yl)-1,4-dihydropyrimidine-5-carboxylate], in series [1], the CC50 at 4 days is greater than 150000 nM. The EC50 in the series with HBV turned out to be 28.1 nM.
Consider `COC(=O)C1=C(CN2CCN3C(=O)N(c4ccc(Oc5ccc(C(=O)NCc6ccccc6Cl)cc5)cc4)C[C@@H]3C2)NC(c2nccs2)=N[C@H]1c1ccc(F)cc1Cl` [Example 62, (R)-methyl 4-(2-chloro-4-fluorophenyl)-6-(((S)-2-(4-(4-((2-chlorobenzyl)carbamoyl)phenoxy)phenyl)-3-oxohexahydroimidazo[1,5-a]pyrazin-7(1H)-yl)methyl)-2-(thiazol-2-yl)-1,4-dihydropyrimidine-5-carboxylate], for which the CC50 at 4 days in series [1] is greater than 150000 nM.
As for `COC(=O)C1=C(CN2CCN3C(=O)N(c4ccc(Oc5ccc(C(=O)NCC(C)(C)C(=O)O)cc5)cc4)C[C@@H]3C2)NC(c2nccs2)=N[C@H]1c1ccc(F)cc1Cl` [Example 75, 3-(4-(4-((S)-7-(((R)-6-(2-chloro-4-fluorophenyl)-5-(methoxycarbonyl)-2-(thiazol-2-yl)-3,6-dihydropyrimidin-4-yl)methyl)-3-oxohexahydroimidazo[1,5-a]pyrazin-2(3H)-yl)phenoxy)benzamido)-2,2-dimethylpropanoic acid], in series [1], the CC50 at 4 days is greater than 150000 nM.
